Test results published in patent US7632531B2, “Alkyldienamides exhibiting taste and sensory effect in flavor compositions” (International Flavors & Fragnances Inc., priority 2003, dated 2009).

Legend:
Assay type in all cases: in vivo
[1] = Flavor / organoleptic characteristics of the alkyldienamides; details: for Primary characteristic / Secondary characteristic: flavor characteristics; for Taste and flavor characteristics: organoleptic properties
[2] = Toothpaste tasting in normal tooth brushing versus control paste; details: 200 ppm compound added to mint control paste
Description: The following separate groups of ingredients were prepared:
2.0 parts by weight of sodium n-Lauroyl sarcosinate (foaming agent)
1.0 parts by weight of the flavor material which is a blend of peppermint oil, spearmint oil, anethole, and menthol.
• (1) The ingredients in Group “A” were stirred and heated in a steam jacketed kettle to 160° F. • (2) Stirring was continued for an additional 3 to 5 minutes to form a homogeneous gel. • (3) The powders of Group “B” were added to the gel, while mixing until a homogeneous paste is formed. • (4) With stirring, the flavor of Group “D” was added, followed by addition immediately thereafter of the foaming agent of Group “C”. • (5) The resultant slurry was then blended for one hour.
The completed paste was then transferred to a three-roller mill, homogenized and finally tubed. […] To this control paste 200 ppm of N-Isobutyl E2,Z6-dodecadienamide is added.

[3] = Hard candy (cinnamon bark oil) tasting versus control candy; details: 100 PPM compound in cinnamon bark oil candy
Description: The above ingredients were added to a stainless steel pot. With constant mixing the ingredients were brought to 295° F. The pot was removed from the heat and 0.5 grams of cinnamon bark oil was blended in. This liquid candy was then deposited into molds where it was left to cool. This recipe yielded 200 grams of finished candy. […] Another candy sample was prepared using the above recipe with the addition of 100 PPM of N-Methyl E2,Z6-nonadienamide.

[4] = Non-alcoholic lemon lime beverage tasting versus control beverage; details: 0.5 PPM compound plus 35 PPM lemon oil/lime oil flavor; versus control beverage with flavor only
Description: A non-alcoholic beverage formulation was prepared according to the following formulation: […]
The flavor applied to the beverages consisted of a blend of single fold lemon oil and distilled lime oil. The control beverage contained 35 PPM of this flavor. […] Another beverage was prepared containing 35 PPM of the same flavor and 0.5 PPM of N-Ethyl E2,Z6-nonadienamide.

[5] = Alcoholic peach beverage tasting versus control beverage; details: 20 PPM compound plus 60 PPM peach flavor in 30° Proof alcoholic base
Description: Flavored beverages were prepared using the following 30° Proof alcoholic base:
The peach flavor applied to the beverages consisted of a blend of Gamma Decalactone, Benzaldehyde, Cis-3-hexenol, Butyric acid, 2-Methyl butyric acid, Iso butyl acetate, Linalool, and para-Mentha-8-thiol-3-one. The control beverage contained 60 PPM of the above flavor blend. […] Another beverage was prepared containing 60 PPM of the same flavor and 20 PPM of N-(3,4-methylenedioxy)benzyl E2,Z6-nonadienamide.

| Compound | Primary characteristic [1] | Secondary characteristic [1] | Taste and flavor characteristics [1] | further results |
| --- | --- | --- | --- | --- |
| CCCCC/C=C\CC/C=C/C(=O)NCC(C)C [N-isobutyl E2,Z6-dodecadienamide] | Numbing | Tingle |  | Additional sensation of toothpaste (tingle, numbing) [2]: tingle on the tongue and a slight numbing on the lips; Flavor / cooling of toothpaste [2]: moderate cooling without the bitterness of the control sample |
| CC/C=C\CC/C=C/C(=O)NC [N-methyl E2,Z6-nonadienamide] | Tingle | Numbing | Warming, tingle. | Taste effect in hard candy [3]: a greener flavor with less warmth, a slight numbing and a moderate level of tingle |
| CC/C=C\CC/C=C/C(=O)NC1CC1 [N-cyclopropyl E2,Z6-nonadienamide] | Umami | Enhancement |  |  |
| CC/C=C\CC/C=C/C(=O)NCC(C)C [N-isobutyl E2,Z6-nonadienamide] |  | MSG like |  |  |
| CC/C=C\CC/C=C/C(=O)NCC [N-ethyl E2,Z6-nonadienamide] | Umami | Enhancement | Umami character. | Taste effect in non-alcoholic beverage [4]: enhanced flavor impact, increased tartness, and an increased perception of freshness |
| CCCCC/C=C\CC/C=C/C(=O)NC(C)C [N-isopropyl E2,Z6-dodecadienamide] |  | Tingle | Oily flavor, slight tingle. |  |
| CC/C=C\CC/C=C/C(=O)NC(C)C [N-isopropyl E2,Z6-nonadienamide] | Cucumber taste | Tingle | Oily, cucumber, some tingle, bitter. |  |
| CC/C=C\CC/C=C/C(=O)NCC(C)O (stereo not drawn) [N-(2-hydroxypropyl) E2,Z6-nonadienamide] |  |  | Cloying, fatty, cod liver oil, fishy. |  |
| CCCCC/C=C\CC/C=C/C(=O)NCC(C)CC (stereo not drawn) [N-(2-methylbutyl) E2,Z6-dodecadienamide] | Fruity | Salt like | Slightly fruity, tingle, salty. |  |
| CC/C=C\CC/C=C/C(=O)NCc1ccc2c(c1)OCO2 [N-(3,4-methylenedioxy) benzyl E2,Z6-nonadienamide] | Numbing | Tingle | Numbing and tingle. | Taste effect in alcoholic beverage [5]: an enhanced perception of alcohol, increased flavor impact, and a tingle effect on the tongue |
| CC/C=C\CC/C=C/C(=O)NCC(C)CC (stereo not drawn) [N-(2-methylbutyl) E2,Z6-nonadienamide] | Bitter | Tingle | Metallic, bitter, tingle. |  |
| CCCCC/C=C\CC/C=C/C(=O)NCC [N-ethyl E2,Z6-dodecadienamide] | MSG like | Burning |  |  |
